The nature of data set [1]: Solid stability test (stability chamber, HPLC total impurity). Type of data set: physicochemical. The settings on record: solid, packaged, 25° C.±2° C., relative humidity 60%±2%.
The test system of data set [2] is Candida albicans ATCC10231. Put plainly: Candida albicans vaginitis in mice, intragastric administration. Type of data set: in vivo, KM mice. The settings on record: logarithm of the CFU values, mean ± SD of 20 mice, 20 mg/kg intragastric once a day.
The subject of data set [3] is Candida albicans ATCC10231. Description: Systemic fungal infection in mice, intravenous administration. The format is in vivo, ICR mice.
Data set [4] deals with Candida albicans ATCC10231. Description: Systemic fungal infection in mice, intragastric administration. The settings on record: Candida albicans, ATCC10231, po. The format is in vivo, ICR mice.
Data set [5] deals with Candida albicans ATCC10231. Description: Candida albicans vaginitis in mice, intravenous administration. The settings on record: logarithm of the CFU values, mean ± SD of 20 mice; for vaginal fungal load of mice, day 5: 20 mg/kg tail vein once a day for 5 days, day 5 after infection; for vaginal fungal load of mice, day 3: 20 mg/kg tail vein once a day, day 3 after infection.
Method: KM mice, weighing 18-22 g, female, provided by Hubei Experimental Animal Center.
The standard strain of Candida albicans was purchased from the American Type Culture
Collection, strain number ATCC10231.
Prior to being infected with Candida albicans, animals in each group were given subcutaneous injections of 0.5 ml of estradiol benzoate (2 mg/ml) for 6 consecutive days to allow them to enter the estrus phase. Injections were continued once every 2 days until the completion of the experiment. After 6 days, 20 μl of Candida albicans solution in a concentration of 3.5×10^6 CFU/ml was injected vaginally into each mouse, causing a vaginal infection model. From the first day after infection, each group of animals was given 20 mg/kg of the corresponding drug (calculated as posaconazole) in the tail vein at an administration volume of 0.1 ml/10 g once a day for 5 consecutive days. The model group was given an equal volume of solvent (physiological saline). On the 3rd and 5th days after infection, the vagina of mice were wiped with sterile cotton swabs. The cotton swabs were soaked in 0.9 ml physiological saline. The fungal solutions were diluted to 10-fold increments to give a series of concentrations, and then 100 μl of each concentration of the bacteria solutions was taken and inoculated on Sabourand's dextrose agar solid medium containing 0.5% (W/V) chloramphenicol to observe the fungal load of Candida albicans on the vagina.

Data set [6] concerns Aspergillus Fumigutus (AF) strains. Description: Aspergillus fumigatus keratitis in rats, intravenous administration. The settings on record: 10 mg/kg tail vein once daily for 5 days; mean ± SD of 10 rats.
Data set [7] is described as follows: Determination of solubility in deionized water (HPLC, external standard). The settings on record: for solubility at 30 min: 25 °C, water, thermodynamic from solid.
The test system of data set [8] is Aspergillus fumigatus AF293. Description: Lung Aspergillus fumigatus infection in immunosuppressed mice, intravenous administration. The settings on record: for responders at 20 mg/kg: Aspergillus fumigatus, AF293, in Mus musculus, iv; for lung fungal load: mouse lung tissue, seven days later, 20 mg/kg tail vein once daily for 5 days, mean ± SD.
Method: ICR male mice were injected intraperitoneally with cyclophosphamide 150 mg/kg and injected subcutaneously with dexamethasone 150 mg/kg for 10 consecutive days. At the same time, the blood was taken to measure the changes of peripheral white blood cells and neutrophils, and mice with neutrophils consistently lower than 100/μl were selected as successfully immunosuppressed mice. Immediately after the last injection, the mice were anesthetized with ethyl ether, and mice were transferred from the initial state of excitement to inhibition. After their bodies were relaxed, the mice were immediately taken. Left hand was used to grasp the mouse to make it stand upright, the middle finger pressed the mouth so that it could breath only with the nose, and the ring finger gently pressed the abdomen to move the diaphragm muscle upward. 30 μl of conidia suspension (Aspergillus fumigatus AF293, 3×10^6 conidia) was sent to the nostrils of the anesthetized mice by a micropipette to allow spontaneous inhalation. After the mouse returned to normal breathing, it was returned to the cage. […] The death of the mice was observed and the survival time was recorded. Seven days later, the mice were sacrificed and their lung tissues were taken to observe the fungal loads of Aspergillus fumigatus in the lungs of the mice.
Data set [9] is described as follows: Pharmacokinetics after single intragastric administration to rats. The format is in vivo, SD rats. The settings on record: plasma posaconazole, 2.5 mg/kg (calculated as posaconazole). As for the experimental part:
Administration amount: 2.5 mg/kg (calculated as posaconazole)
Administration volume: 10 ml/kg
Drug concentration: 0.25 mg/mL
Administration vehicle: the positive drug posaconazole group used CMC—Na, while other groups used normal saline (physiological saline)
Administration route: intragastric administration
Experimental animals: SD rats, SPF grade, weighing 180-220 g, equal amount of male and female. Rats were randomly divided into groups of 6 with 3 males and 3 females.
Experimental protocol: after oral intragastric administration, blood samples were collected at different time points to determine the concentration of posaconazole in the plasma and the pharmacokinetic parameters of posaconazole were obtained.

Where [10] appears, read: 24 h, read-out: survival rate of mice, day 1.
Where [11] appears, read: 48 h, read-out: survival rate of mice, day 2.
[12] abbreviates: 72 h, read-out: survival rate of mice, day 3.
Where [13] appears, read: 96 h, read-out: survival rate of mice, day 4.
Setting [14] is: 120 h, read-out: survival rate of mice, day 5.
Where [15] appears, read: 144 h, read-out: survival rate of mice, day 6.
Setting [16] is: 168 h, read-out: survival rate of mice, day 7.
Where [17] appears, read: 24 h, read-out: survival rate of mice, day 1, 20 mg/kg intragastric once daily for 5 days, day 1.
Where [18] appears, read: 48 h, read-out: survival rate of mice, day 2, 20 mg/kg intragastric once daily for 5 days, day 2.
Setting [19] is: 72 h, read-out: survival rate of mice, day 3, 20 mg/kg intragastric once daily for 5 days, day 3.
[20] abbreviates: 96 h, read-out: survival rate of mice, day 4, 20 mg/kg intragastric once daily for 5 days, day 4.
Setting [21] is: 120 h, read-out: survival rate of mice, day 5, 20 mg/kg intragastric once daily for 5 days, day 5.
The mark [22] stands for this setting: 144 h, read-out: survival rate of mice, day 6, 20 mg/kg intragastric once daily for 5 days, day 6.
Where [23] appears, read: 168 h, read-out: survival rate of mice, day 7, 20 mg/kg intragastric once daily for 5 days, day 7.
[24] abbreviates: 24 h, read-out: survival rate of mice, day 1, 20 mg/kg tail vein once daily for 5 days, day 1.
[25] abbreviates: 48 h, read-out: survival rate of mice, day 2, 20 mg/kg tail vein once daily for 5 days, day 2.
The mark [26] stands for this setting: 72 h, read-out: survival rate of mice, day 3, 20 mg/kg tail vein once daily for 5 days, day 3.
[27] abbreviates: 96 h, read-out: survival rate of mice, day 4, 20 mg/kg tail vein once daily for 5 days, day 4.
[28] abbreviates: 120 h, read-out: survival rate of mice, day 5, 20 mg/kg tail vein once daily for 5 days, day 5.
Where [29] appears, read: 144 h, read-out: survival rate of mice, day 6, 20 mg/kg tail vein once daily for 5 days, day 6.
Where [30] appears, read: 168 h, read-out: survival rate of mice, day 7, 20 mg/kg tail vein once daily for 5 days, day 7.

Values after ≈ are worked out from the molar mass of the structure shown. Like-named read-outs stand apart in the source and are kept apart here.

As for `CC[C@@H]([C@H](C)O)n1ncn(-c2ccc(N3CCN(c4ccc(OC[C@@H]5CO[C@@](Cn6c[n+](C(C)OC(=O)N(C)c7ncccc7COC(=O)[C@@H](N)CCCN)cn6)(c6ccc(F)cc6F)C5)cc4)CC3)cc2)c1=O` (some centres unmarked) [ST0003], the “Total impurity increment in 30 days” value in [1] stood at 0.68%. Further, the “vaginal fungal load of mice, day 3” value in data set [2] (20 mg/kg) stood at 4.23 ± 0.41; in data set [5] (20 mg/kg), 4.11 ± 0.30. Also, the “vaginal fungal load of mice, day 5” value is recorded as 4.05 ± 0.37 in data set [2] (20 mg/kg) and 3.85 ± 0.28 in [5] (20 mg/kg). In addition, the “vaginal fungal load of mice, day 7” value in [2] (20 mg/kg) amounted to 3.28 ± 0.36. In [2] (20 mg/kg), the “vaginal fungal load of mice, day 11” value is recorded as 2.47 ± 0.18. In addition, the responders at 20 mg/kg in data set [3] (setting [10]), in [3] (setting [11]), in data set [3] (setting [12]), in data set [3] (setting [13]), in data set [3] (setting [14]) and in data set [3] (setting [15]) was 100% throughout. In addition, the responders at 20 mg/kg in [3] (setting [16]) came to 90%; in data set [4] (setting [17]) it was 100%; in data set [4] (setting [18]), 100%; in [4] (setting [19]) it was 100%; in data set [4] (setting [20]) it was 90%; in data set [4] (setting [21]), 80%. The responders at 20 mg/kg worked out at 80% in data set [4] (setting [22]); 80% in [4] (setting [23]); 100% in data set [8] (setting [24]); 100% in data set [8] (setting [25]); 100% in data set [8] (setting [26]); 100% in data set [8] (setting [27]). The results for the responders at 20 mg/kg in data set [8] (setting [28]), in data set [8] (setting [29]) and in data set [8] (setting [30]) were 100%, 90% and 90%, respectively. Also, the “Amount of active fungi in cornea at day 7” value (“Amount of active fungi” for short) in data set [6] is reported as 1.48 ± 0.38 10^3 CFU/ml. In addition, the Solubility in [7] (25±2° C., after 30 min) was over 50 mg/mL. Moreover, the lung fungal load in data set [8] (20 mg/kg) is 1.39 ± 0.32 10^4 CFU/ml.

For the compound `CC[C@@H]([C@H](C)O)n1ncn(-c2ccc(N3CCN(c4ccc(OC[C@@H]5CO[C@@](Cn6c[n+](C(C)OC(=O)N(C)c7ncccc7COC(=O)[C@@H](N)CCCNC(N)=O)cn6)(c6ccc(F)cc6F)C5)cc4)CC3)cc2)c1=O` (some centres unmarked) [ST0012], the “vaginal fungal load of mice, day 3” value in [2] was found to be 4.17 ± 0.43; in data set [5], 4.01 ± 0.28. For the same compound, the figures for the “vaginal fungal load of mice, day 5” value in data set [2] and in data set [5] were 4.12 ± 0.35 and 3.75 ± 0.26, respectively. For the same compound, the “vaginal fungal load of mice, day 7” value in [2] is recorded as 3.10 ± 0.34. Moreover, the “vaginal fungal load of mice, day 11” value in data set [2] was 2.42 ± 0.19. Also, the responders at 20 mg/kg in data set [3] (setting [10]), in data set [3] (setting [11]), in [3] (setting [12]), in [3] (setting [13]), in data set [3] (setting [14]) and in [3] (setting [15]) was 100% throughout. In addition, the responders at 20 mg/kg in data set [3] (setting [16]) worked out at 90%; in data set [4] (setting [17]) it was 100%; in data set [4] (setting [18]) it was 100%; in data set [4] (setting [19]), 100%; in data set [4] (setting [20]) it was 80%; in data set [4] (setting [21]), 80%. For the same compound, the responders at 20 mg/kg came out at 80% in [4] (setting [22]); 80% in [4] (setting [23]); 100% in data set [8] (setting [24]); 100% in data set [8] (setting [25]); 100% in [8] (setting [26]); 100% in data set [8] (setting [27]). Also, the results for the responders at 20 mg/kg in [8] (setting [28]), in data set [8] (setting [29]) and in [8] (setting [30]) were 100%, 90% and 90%, respectively. Moreover, the “Amount of active fungi” value in data set [6] is listed as 1.45 ± 0.37 10^3 CFU/ml. In [7], this compound came in with a solubility at 30 min of over 50 mg/mL. For the same compound, the lung fungal load in data set [8] was 1.42 ± 0.30 10^4 CFU/ml.

Regarding `CC[C@@H]([C@H](C)O)n1ncn(-c2ccc(N3CCN(c4ccc(OC[C@@H]5CO[C@@](Cn6c[n+](C(C)OC(=O)N(C)c7ncccc7COC(=O)[C@@H](N)CCN)cn6)(c6ccc(F)cc6F)C5)cc4)CC3)cc2)c1=O` (some centres unmarked) [ST0006], in data set [2], the “vaginal fungal load of mice, day 3” value was 4.32 ± 0.29. The “vaginal fungal load of mice, day 5” value in data set [2] is given as 4.18 ± 0.20. The “vaginal fungal load of mice, day 7” value in data set [2] is 3.49 ± 0.54. Moreover, the “vaginal fungal load of mice, day 11” value in data set [2] is reported as 2.84 ± 0.37. The responders at 20 mg/kg in data set [4] (setting [17]) was 100%; in [4] (setting [18]), 100%; in data set [4] (setting [19]), 90%; in data set [4] (setting [20]), 80%; in [4] (setting [21]), 70%; in data set [4] (setting [22]), 70%. Further, the responders at 20 mg/kg in data set [4] (setting [23]) amounted to 70%; in data set [8] (setting [24]), 100%; in [8] (setting [25]) it was 100%; in [8] (setting [26]) it was 100%; in [8] (setting [27]), 100%; in data set [8] (setting [28]) it was 90%. Further, the values for the responders at 20 mg/kg in [8] (setting [29]) and in [8] (setting [30]) were 90% and 80%, respectively. Besides, the “Amount of active fungi” value in data set [6] was 1.92 ± 0.41 10^3 CFU/ml. The solubility at 30 min in data set [7] is over 50 mg/mL. For the same compound, the lung fungal load in data set [8] is 1.73 ± 0.34 10^4 CFU/ml.

In the case of `CC[C@@H]([C@H](C)O)n1ncn(-c2ccc(N3CCN(c4ccc(OC[C@@H]5CO[C@@](Cn6c[n+](C(C)OC(=O)NCC(=O)[O-])cn6)(c6ccc(F)cc6F)C5)cc4)CC3)cc2)c1=O.[Cl-].[Na+]` (some centres unmarked) [ST0019], in data set [9], the AUClast is 1985 ± 358 ng·h/mL, the Cmax is 102 ± 26 ng/mL and the T1/2 was 11.41 ± 3.25 h.

As to `CCC([C@H](C)OC(=O)C(O)C(O)COP(=O)(O)O)n1ncn(-c2ccc(N3CCN(c4ccc(OC[C@@H]5CO[C@@](Cn6cncn6)(c6ccc(F)cc6F)C5)cc4)CC3)cc2)c1=O` (some centres unmarked) [ST0001], in [6], the “Amount of active fungi” value is reported as 3.73 ± 0.63 10^3 CFU/ml. Moreover, the concentration in solution in [7] (solubility at 30 min) came to 47.7 mg/mL (≈ 53.1 mM). Also, the responders at 20 mg/kg was found to be 100% in data set [8] (setting [24]); 100% in [8] (setting [25]); 90% in data set [8] (setting [26]); 90% in [8] (setting [27]); 80% in data set [8] (setting [28]); 70% in data set [8] (setting [29]). In data set [8] (setting [30]), the responders at 20 mg/kg came out at 70%. Moreover, the lung fungal load in data set [8] is 2.28 ± 0.77 10^4 CFU/ml.

Source of the values: US10517867B2, “Posaconazole derivative, pharmaceutical composition and use thereof” (priority 2016, dated 2019).
